Laboratory results reported in ChEMBL document CHEMBL1201862, “PubChem BioAssay data set” (2004).
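Cultured in 96-well plates, cells were exposed to test compound for 48 hours across five concentrations. At the GI50, growth is halved.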 Calls of active or inactive are those of the source. No stated cut-off is given here; in the data, active = GI50 up to about 1.1 µM and inactive = higher.

How the values were obtained:
Assay in all cases: NCI tumour cell line growth inhibition, 48 h
SNB-78 = test system: SNB-78
OVCAR-8 = test system: OVCAR-8
LOX IMVI = test system: LOX IMVI
CCRF-CEM = test system: CCRF-CEM
SK-MEL-28 = test system: SK-MEL-28
A498 = test system: A498
NCI-H23 = test system: NCI-H23
HCT-116 = test system: HCT-116
M19-MEL = test system: M19-MEL
HT-29 = test system: HT-29
HL-60 = test system: HL-60
MOLT-4 = test system: MOLT-4
SW-620 = test system: SW-620
M14 = test system: M14
TK-10 = test system: TK-10
MDA-MB-435 = test system: MDA-MB-435
MDA-N = test system: MDA-N
BT-549 = test system: BT-549
MDA-MB-231 = test system: MDA-MB-231
Hs-578T = test system: Hs-578T

Measured: GI50

O=C(N[C@@H](c1ccccc1)[C@@H](O)C(=O)OCc1ccc2c(c1)OCO2)c1ccccc1
inactive: SNB-78 > 100 µM | OVCAR-8 > 100 µM | LOX IMVI > 100 µM | CCRF-CEM > 100 µM | SK-MEL-28 > 100 µM | A498 > 100 µM | NCI-H23 > 100 µM | HCT-116 > 100 µM | M19-MEL > 100 µM | HT-29 > 100 µM | HL-60 > 100 µM | MOLT-4 > 91.8 µM | SW-620 > 100 µM

CC1C(=O)CC(c2cccs2)N(N=O)C1c1cccs1 (stereo not drawn)
inactive: SNB-78 35.7 µM | OVCAR-8 > 42 µM | LOX IMVI 56.5 µM | CCRF-CEM 34 µM | SK-MEL-28 53.2 µM | A498 13.7 µM | NCI-H23 40.6 µM | HCT-116 46.2 µM | M19-MEL 47.8 µM | HT-29 23.5 µM | HL-60 26.7 µM | MOLT-4 25.8 µM | SW-620 54.6 µM

CC1OC=CC(=O)C1O (stereo not drawn)
inactive: M14 > 100 µM | SNB-78 > 100 µM | OVCAR-8 > 100 µM | LOX IMVI > 100 µM | CCRF-CEM 69.7 µM | SK-MEL-28 > 100 µM | NCI-H23 > 100 µM | M19-MEL > 100 µM | HT-29 > 100 µM | TK-10 > 100 µM | HL-60 > 100 µM | MOLT-4 > 100 µM | SW-620 > 100 µM

O=c1oc2c(ccc3occc32)c(N2CCCCC2)c1-c1ccccc1
inactive: SNB-78 > 91.8 µM | OVCAR-8 > 100 µM | LOX IMVI > 100 µM | SK-MEL-28 > 100 µM | A498 > 100 µM | NCI-H23 > 100 µM | HCT-116 > 100 µM | M19-MEL > 100 µM | HT-29 61.2 µM | HL-60 24.2 µM | SW-620 > 100 µM

CCOC(=O)/C=C/c1c[nH]c(=O)[nH]c1=O
inactive: SNB-78 > 75 µM | OVCAR-8 > 75 µM | LOX IMVI > 75 µM | CCRF-CEM > 75 µM | SK-MEL-28 > 75 µM | A498 > 75 µM | NCI-H23 > 75 µM | HCT-116 > 75 µM | M19-MEL > 75 µM | HT-29 > 75 µM | HL-60 > 75 µM | MOLT-4 > 33.4 µM | SW-620 > 47.3 µM

O=C(O)COc1ccccc1C(=O)Nc1ccccc1
inactive: M14 > 100 µM | SNB-78 > 100 µM | OVCAR-8 > 100 µM | LOX IMVI > 100 µM | CCRF-CEM > 100 µM | SK-MEL-28 > 100 µM | NCI-H23 > 100 µM | HCT-116 > 100 µM | M19-MEL > 100 µM | HT-29 > 100 µM | TK-10 > 100 µM | HL-60 > 100 µM | MOLT-4 > 100 µM | SW-620 > 100 µM

CN(C)/N=C(\CCN1CCCC1)CC(c1ccccc1)c1c(O)c2ccccc2oc1=O (stereo not drawn)
inactive: M14 > 100 µM | LOX IMVI > 100 µM | CCRF-CEM > 100 µM | SK-MEL-28 > 100 µM | NCI-H23 > 100 µM | HCT-116 > 100 µM | M19-MEL > 100 µM | HT-29 > 100 µM | TK-10 > 100 µM | HL-60 25.2 µM | SW-620 > 100 µM

CCc1ccccc1NC(=O)CCc1n[nH]c(=S)o1
inactive: M14 > 100 µM | SNB-78 > 100 µM | OVCAR-8 > 100 µM | CCRF-CEM > 100 µM | SK-MEL-28 > 100 µM | A498 > 100 µM | NCI-H23 > 100 µM | HCT-116 18.5 µM | M19-MEL > 100 µM | HT-29 > 100 µM | TK-10 > 100 µM | HL-60 > 100 µM | MOLT-4 > 100 µM | SW-620 18.6 µM

C#Cc1c(C)c(/C=C/C(C)=C/C=C/C(C)=C/C(=O)OC)n(C)c1C
inactive: M14 > 100 µM | SNB-78 > 100 µM | OVCAR-8 > 100 µM | LOX IMVI > 100 µM | CCRF-CEM > 100 µM | SK-MEL-28 > 100 µM | NCI-H23 > 100 µM | HCT-116 > 100 µM | M19-MEL > 100 µM | HT-29 > 100 µM | TK-10 > 100 µM | HL-60 > 100 µM | MOLT-4 > 100 µM | SW-620 > 100 µM

COC(=O)/C(C#N)=C1\NN=NN1CCCc1ccccc1
inactive: M14 > 100 µM | SNB-78 > 100 µM | OVCAR-8 > 100 µM | LOX IMVI > 100 µM | CCRF-CEM > 100 µM | SK-MEL-28 > 100 µM | A498 84.3 µM | NCI-H23 > 100 µM | HCT-116 > 100 µM | M19-MEL > 100 µM | HT-29 > 100 µM | TK-10 > 100 µM | MOLT-4 > 100 µM | SW-620 > 100 µM

CCOC(=O)C1=C(C)N(NC(N)=O)C(C)(O)C12CCOC2=O (stereo not drawn)
inactive: M14 > 100 µM | SNB-78 1.97 µM | OVCAR-8 > 100 µM | LOX IMVI > 100 µM | SK-MEL-28 > 100 µM | A498 > 100 µM | HCT-116 > 100 µM | M19-MEL > 100 µM | HT-29 > 100 µM | HL-60 > 100 µM | MOLT-4 > 100 µM | SW-620 > 100 µM

NCCSc1nc2ccccc2s1
inactive: M14 33.7 µM | OVCAR-8 43.2 µM | LOX IMVI 30.7 µM | MDA-MB-435 23 µM | MDA-N 38.3 µM | BT-549 31.5 µM | CCRF-CEM 26.3 µM | SK-MEL-28 > 100 µM | A498 32.9 µM | NCI-H23 41.7 µM | HCT-116 33.7 µM | MDA-MB-231 40 µM | HT-29 34 µM | TK-10 24.9 µM | Hs-578T 32.1 µM | HL-60 73.5 µM | MOLT-4 34.9 µM | SW-620 32.1 µM

CN(C)Cc1cc(/N=N/c2c(Cl)cccc2Cl)ccc1O
inactive: M14 > 10 µM | OVCAR-8 > 100 µM | LOX IMVI 74.3 µM | MDA-MB-435 88.9 µM | MDA-N > 100 µM | BT-549 49 µM | CCRF-CEM > 100 µM | SK-MEL-28 71.8 µM | A498 55.5 µM | NCI-H23 63.4 µM | HCT-116 > 100 µM | MDA-MB-231 > 100 µM | HT-29 50.4 µM | TK-10 > 100 µM | Hs-578T 40.9 µM | HL-60 68.4 µM | MOLT-4 67.3 µM | SW-620 79.6 µM

CCCCCCCCOC(CO)CO
inactive: M14 > 100 µM | OVCAR-8 > 100 µM | LOX IMVI > 100 µM | CCRF-CEM > 100 µM | SK-MEL-28 > 100 µM | A498 > 100 µM | NCI-H23 > 100 µM | HCT-116 > 100 µM | M19-MEL > 100 µM | HT-29 > 100 µM | TK-10 > 100 µM | HL-60 > 100 µM | MOLT-4 > 100 µM | SW-620 > 100 µM

COC1/C(=C\c2ccccc2I)c2ccccc2N1C(C)=O (stereo not drawn)
inactive: SNB-78 25.2 µM | OVCAR-8 30 µM | CCRF-CEM 17 µM | SK-MEL-28 17.3 µM | A498 15.8 µM | NCI-H23 15.7 µM | HCT-116 13.8 µM | M19-MEL 19.6 µM | HT-29 15.6 µM | HL-60 3.46 µM | MOLT-4 14.1 µM | SW-620 20.6 µM

O=c1nc(-c2ccccc2)scc1-c1ccccc1
inactive: M14 > 100 µM | OVCAR-8 > 100 µM | CCRF-CEM > 100 µM | SK-MEL-28 > 100 µM | NCI-H23 > 100 µM | HCT-116 > 100 µM | M19-MEL > 100 µM | HT-29 > 100 µM | TK-10 > 100 µM | HL-60 > 100 µM | MOLT-4 > 100 µM | SW-620 > 100 µM

CCCCCCc1cn([C@H]2C[C@H](O)[C@@H](CO)O2)c(=O)[nH]c1=O
inactive: SNB-78 > 100 µM | OVCAR-8 > 100 µM | LOX IMVI > 100 µM | CCRF-CEM > 100 µM | SK-MEL-28 > 100 µM | A498 > 100 µM | NCI-H23 > 100 µM | HCT-116 > 100 µM | M19-MEL > 100 µM | HT-29 > 100 µM | HL-60 > 100 µM | SW-620 > 100 µM

CC(NC1CCCC[C@@H]1O)c1ccccc1 (stereo partly drawn)
inactive: M14 > 100 µM | SNB-78 > 100 µM | OVCAR-8 > 100 µM | LOX IMVI > 100 µM | CCRF-CEM > 100 µM | SK-MEL-28 > 100 µM | HCT-116 > 100 µM | M19-MEL > 100 µM | HT-29 > 100 µM | TK-10 > 100 µM | HL-60 > 100 µM | MOLT-4 > 100 µM | SW-620 > 100 µM

COC(=O)C1CCC[C@H]2C(CO)=C(C)C(=O)[C@@H]12 (stereo partly drawn)
inactive: M14 > 100 µM | SNB-78 > 100 µM | OVCAR-8 > 100 µM | CCRF-CEM > 100 µM | SK-MEL-28 > 100 µM | A498 > 100 µM | NCI-H23 > 100 µM | HCT-116 > 100 µM | HT-29 > 100 µM | TK-10 > 100 µM | HL-60 > 100 µM | MOLT-4 > 100 µM | SW-620 > 100 µM

Cc1nc2c(o1)/C(=N\c1ccccc1)c1ccccc1/C2=N/c1ccccc1
inactive: M14 51.5 µM | SNB-78 70.1 µM | OVCAR-8 > 100 µM | LOX IMVI 28.4 µM | CCRF-CEM 58.2 µM | A498 > 100 µM | NCI-H23 49.2 µM | HCT-116 70.8 µM | M19-MEL 55.1 µM | HT-29 94.2 µM | TK-10 > 100 µM | HL-60 > 100 µM | MOLT-4 > 100 µM | SW-620 16.9 µM
